Source: ChEMBL document CHEMBL2057159, “Methylation of imidazoline related compounds leads to loss of α₂-adrenoceptor affinity. Synthesis and biological evaluation of selective I₁ imidazoline receptor ligands” (Bioorg Med Chem, 2012)
The source made the active and inactive calls. The calls are words filed in the database; no cut-off is given here.

Key:
[1] = tested on: PC-12; assay: Selectivity ratio of pKi for human alpha2A adrenoceptor to pKi for imidazoline I1 receptor in rat PC12 cell; type: cell-based
[2] = tested on: PC-12; assay: Selectivity ratio of pKi for imidazoline I2 receptor in New Zealand rabbit renal cortex to pKi for imidazoline I1 receptor in rat PC12 cell; type: cell-based
[3] = tested on: PC-12; assay: Selectivity ratio of pKi for human alpha2B adrenoceptor to pKi for imidazoline I1 receptor in rat PC12 cell; type: cell-based
[4] = tested on: PC-12; assay: Selectivity ratio of pKi for human alpha2C adrenoceptor to pKi for imidazoline I1 receptor in rat PC12 cell; type: cell-based
[5] = Displacement of [3H]idazoxan from imidazoline I2 receptor in New Zealand rabbit renal cortex homogenate after 60 mins […]; set-up: species or system Oryctolagus cuniculus
[6] = biological target: T1, Alpha-2B adrenergic receptor (Homo sapiens, UniProt P18089); assay: Displacement of [3H]RX821001 from human alpha2B adrenoceptor expressed in CHO cells after 60 mins by gamma counter; type: cell-based
T1 sequence (P18089 whole entry): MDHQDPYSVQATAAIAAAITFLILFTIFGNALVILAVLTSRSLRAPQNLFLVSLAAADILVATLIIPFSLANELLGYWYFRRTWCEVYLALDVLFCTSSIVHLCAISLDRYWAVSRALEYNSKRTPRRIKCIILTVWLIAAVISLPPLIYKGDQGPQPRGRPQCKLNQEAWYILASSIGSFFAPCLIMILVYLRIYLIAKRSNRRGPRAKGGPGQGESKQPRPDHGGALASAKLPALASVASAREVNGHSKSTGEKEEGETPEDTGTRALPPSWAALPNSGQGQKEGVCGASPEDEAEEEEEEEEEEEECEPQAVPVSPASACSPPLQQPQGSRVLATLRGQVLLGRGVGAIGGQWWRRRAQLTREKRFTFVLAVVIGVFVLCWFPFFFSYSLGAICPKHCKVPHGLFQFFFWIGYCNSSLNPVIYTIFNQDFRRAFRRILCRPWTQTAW

[7] = tested on: Rattus norvegicus; assay: Hypotensive activity in spontaneous hypertensive rat assessed as decrease in mean blood pressure at 10 mg/kg, iv measured continuously during 30 mins; type: functional, organism-based; set-up: dose 10 mg/kg
[8] = tested on: Rattus norvegicus; assay: Toxicity in spontaneous hypertensive rat assessed as vasoconstrictive activity at 1 mg/kg, iv; type: organism-based; set-up: dose 1 mg/kg, route intravenous; conditions: in vivo
[9] = biological target: Nischarin (Rattus norvegicus, UniProt Q4G017); assay: Displacement of [125I]paraiodoclonidine from imidazoline I1 receptor in rat PC12 cells after 30 mins by gamma counter
[10] = biological target: T2, Alpha-2C adrenergic receptor (Homo sapiens, UniProt P18825); assay: Displacement of [3H]RX821001 from human alpha2C adrenoceptor expressed in CHO cells after 60 mins […]; type: cell-based
T2 sequence (P18825 whole entry): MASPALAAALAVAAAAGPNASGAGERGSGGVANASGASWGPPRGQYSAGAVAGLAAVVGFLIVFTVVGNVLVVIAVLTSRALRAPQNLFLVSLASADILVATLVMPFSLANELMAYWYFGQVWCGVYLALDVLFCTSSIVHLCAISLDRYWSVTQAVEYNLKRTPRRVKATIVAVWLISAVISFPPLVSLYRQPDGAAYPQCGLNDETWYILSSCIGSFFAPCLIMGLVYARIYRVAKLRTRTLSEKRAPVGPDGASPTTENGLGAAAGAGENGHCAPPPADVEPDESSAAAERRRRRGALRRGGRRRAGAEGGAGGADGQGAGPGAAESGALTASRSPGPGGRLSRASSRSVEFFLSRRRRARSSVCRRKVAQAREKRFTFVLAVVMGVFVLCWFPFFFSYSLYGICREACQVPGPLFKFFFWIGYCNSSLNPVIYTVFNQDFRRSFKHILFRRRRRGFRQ

[11] = biological target: T3, Alpha-2A adrenergic receptor (Homo sapiens, UniProt P08913); assay: Displacement of [3H]RX821001 from human alpha2A adrenoceptor expressed in CHO cells after 60 mins […]; type: cell-based
T3 sequence (P08913 whole entry): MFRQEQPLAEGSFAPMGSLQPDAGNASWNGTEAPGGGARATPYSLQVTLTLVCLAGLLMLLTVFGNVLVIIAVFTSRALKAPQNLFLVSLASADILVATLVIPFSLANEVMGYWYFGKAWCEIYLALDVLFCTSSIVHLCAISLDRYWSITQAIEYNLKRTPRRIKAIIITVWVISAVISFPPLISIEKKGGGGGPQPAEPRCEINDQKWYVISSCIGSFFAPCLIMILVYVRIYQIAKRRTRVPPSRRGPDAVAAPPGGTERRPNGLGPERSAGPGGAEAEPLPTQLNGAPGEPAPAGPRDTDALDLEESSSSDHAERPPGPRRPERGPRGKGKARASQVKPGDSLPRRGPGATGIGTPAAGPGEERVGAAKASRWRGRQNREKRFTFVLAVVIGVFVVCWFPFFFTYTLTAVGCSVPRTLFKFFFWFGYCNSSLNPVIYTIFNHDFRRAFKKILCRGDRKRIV

[12] = tested on: Rattus norvegicus; assay: Hypotensive activity in spontaneous hypertensive rat assessed as decrease in mean blood pressure at 1 mg/kg, iv measured after 5 mins relative to control; type: functional; set-up: scale not given: the % may be the effect or the level left
[13] = biological target: T4, Alpha-2A adrenergic receptor (Homo sapiens) (UniProt P08913); assay: Selectivity ratio of compound to rilmenidine for human alpha2A adrenoceptor expressed in CHO cells after 60 mins […]; type: cell-based
T4 sequence (whole entry): T3 sequence (P08913 whole entry)

[14] = biological target: T5, Alpha-2C adrenergic receptor (Homo sapiens) (UniProt P18825); assay: Selectivity ratio of compound to rilmenidine for human alpha2C adrenoceptor expressed in CHO cells after 60 mins […]; type: cell-based
T5 sequence (whole entry): T2 sequence (P18825 whole entry)

[15] = biological target: T6, Alpha-2B adrenergic receptor (Homo sapiens) (UniProt P18089); assay: Selectivity ratio of compound to rilmenidine for human alpha2B adrenoceptor expressed in CHO cells after 60 mins […]; type: cell-based
T6 sequence (whole entry): T1 sequence (P18089 whole entry)

Sequence of Nischarin (Q4G017 whole entry): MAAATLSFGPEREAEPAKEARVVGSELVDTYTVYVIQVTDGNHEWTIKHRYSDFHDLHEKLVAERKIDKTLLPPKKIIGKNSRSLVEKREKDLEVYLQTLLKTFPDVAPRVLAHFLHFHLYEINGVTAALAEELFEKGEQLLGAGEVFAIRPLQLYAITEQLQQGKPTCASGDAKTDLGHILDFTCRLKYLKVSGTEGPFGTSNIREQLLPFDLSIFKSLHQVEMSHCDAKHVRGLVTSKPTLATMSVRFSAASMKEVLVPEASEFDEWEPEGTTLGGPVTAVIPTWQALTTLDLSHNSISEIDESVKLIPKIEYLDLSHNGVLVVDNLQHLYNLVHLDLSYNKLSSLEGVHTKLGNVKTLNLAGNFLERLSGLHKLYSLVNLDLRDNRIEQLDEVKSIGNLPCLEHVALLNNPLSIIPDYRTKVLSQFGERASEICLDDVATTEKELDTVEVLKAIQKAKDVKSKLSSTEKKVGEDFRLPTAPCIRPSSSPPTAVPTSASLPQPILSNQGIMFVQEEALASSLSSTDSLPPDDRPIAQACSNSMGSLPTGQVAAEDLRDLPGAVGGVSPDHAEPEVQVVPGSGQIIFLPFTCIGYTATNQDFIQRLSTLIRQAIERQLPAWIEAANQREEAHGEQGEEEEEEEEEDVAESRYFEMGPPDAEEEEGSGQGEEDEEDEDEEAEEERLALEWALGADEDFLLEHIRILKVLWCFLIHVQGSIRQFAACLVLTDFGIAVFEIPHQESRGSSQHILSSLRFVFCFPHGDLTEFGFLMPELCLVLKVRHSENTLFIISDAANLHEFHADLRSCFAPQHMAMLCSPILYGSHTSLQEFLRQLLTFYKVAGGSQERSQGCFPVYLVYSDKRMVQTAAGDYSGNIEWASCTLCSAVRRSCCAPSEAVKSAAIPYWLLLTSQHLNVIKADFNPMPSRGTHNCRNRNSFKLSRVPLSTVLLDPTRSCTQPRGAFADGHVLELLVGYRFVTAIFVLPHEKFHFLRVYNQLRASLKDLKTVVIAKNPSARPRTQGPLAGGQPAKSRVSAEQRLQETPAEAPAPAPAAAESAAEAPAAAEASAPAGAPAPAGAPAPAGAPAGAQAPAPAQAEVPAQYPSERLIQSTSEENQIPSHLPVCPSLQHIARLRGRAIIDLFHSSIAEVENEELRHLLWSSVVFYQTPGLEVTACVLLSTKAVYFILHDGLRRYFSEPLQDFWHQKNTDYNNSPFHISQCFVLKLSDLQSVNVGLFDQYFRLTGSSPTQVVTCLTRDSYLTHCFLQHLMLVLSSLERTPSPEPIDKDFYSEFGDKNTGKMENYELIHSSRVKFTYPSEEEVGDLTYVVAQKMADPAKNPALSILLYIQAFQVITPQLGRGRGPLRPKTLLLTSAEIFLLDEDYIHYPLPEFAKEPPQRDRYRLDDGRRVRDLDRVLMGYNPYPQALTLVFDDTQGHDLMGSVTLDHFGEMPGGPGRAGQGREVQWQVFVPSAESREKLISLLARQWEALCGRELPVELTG

| pKi [5] | Ki [6] [nM] | Ki [9] [nM] | Ki [10] [nM] | Ki [11] [nM] | Ratio [13] | Ratio [14] | Ratio [15] | Compound | Ratio pKi [1] | Ratio pKi [2] | Ratio pKi [3] | Ratio pKi [4] | Activity [7] | Activity [8] | Activity [12] [%] |
| --- | --- | --- | --- | --- | --- | --- | --- | --- | --- | --- | --- | --- | --- | --- | --- |
| < 5 |  |  |  |  |  |  |  | CC1CCC(Nc2ccc(I)cc2Cl)=N1 (centres undefined) | 11700 | > 45700 | 19100 | > 45700 |  |  |  |
| < 5 | > 10000 | 132 | > 10000 | > 10000 |  |  |  | CC1CCC(Nc2ccccc2Cl)=N1 (centres undefined) |  |  |  |  | inactive | Non-toxic |  |
|  | 4170 | 0.219 | > 10000 | 2570 |  |  |  | CC1CCC(=Nc2ccc(I)cc2Cl)N1 (centres undefined) |  |  |  |  |  |  |  |
| < 5 |  | 282 |  |  |  |  |  | Clc1cccc(Cl)c1NC1=NCCN1 [CLONIDINE] |  |  |  |  |  |  |  |
| 6.1 | 933 | 77.6 | 5010 | 3020 |  |  |  | Clc1ccccc1NC1=NCCC1 |  |  |  |  |  |  |  |
| < 5 | 2820 | 363 | > 10000 | 4900 | 135 | > 794 | 66 | CC1COC(NC(C2CC2)C2CC2)=N1 (centres undefined) |  |  |  |  | inactive | Non-toxic |  |
| < 5 | 42.7 |  | 12.6 | 36.3 |  |  |  | C1COC(NC(C2CC2)C2CC2)=N1 [RILMENIDINE] |  |  |  |  |  |  |  |

| Compound | pKi [5] | Ki [6] [nM] | Ki [9] [nM] | Ki [10] [nM] | Ki [11] [nM] | Ratio [13] | Ratio [14] | Ratio [15] | Ratio pKi [1] | Ratio pKi [2] | Ratio pKi [3] | Ratio pKi [4] | Activity [7] | Activity [8] | Activity [12] [%] |
| --- | --- | --- | --- | --- | --- | --- | --- | --- | --- | --- | --- | --- | --- | --- | --- |
| CC1CNC(Nc2c(Cl)cccc2Cl)=N1 (centres undefined) | < 5 | 1320 | 0.933 | 5750 | 1950 |  |  |  |  |  |  |  |  | Non-toxic | 45 |
